Assay [1] concerns the target T1, OCT4 protein (Homo sapiens, UniProt Q01860).
T1 construct: HeLa cell line 3A11 with endogenous high expression of OCT4; endogenous in cells; host or cells: HeLa cell line 3A11
The assay is described as follows: Inhibitory effect on OCT4 protein in HeLa cells (Western blot). The settings on record: FIG. 2. The assay is classed as cell-based. The text has this: • 1) Cell source: HeLa cell line 3A11 with endogenous high expression of OCT4, constructed by the inventor's laboratory (Zhou Y et al. Endogenous authentic OCT4A proteins directly regulate FOS/AP-1 transcription in physiological cancer cells. Cell Death Dis. 2018, 9:585). • 2) Cell culture and passage: All of the above cells were adherently cultured in complete culture medium [to a 6-cm culture dish (#430166, Corning) or T75 culture bottle (#3276, Corning) containing DMEM high-sugar basal medium (#SH30243.01B, HyClone) was added a final concentration of 10% FBS (#1101-500, Shanghai Pufei) and Penicillin-Streptomycin dual antibody (#SV30010, HyClone)]. The culture dish (bottle) was placed in a cell culture incubator (#3111, Thermo Fisher Scientific) at 37° C., 5% CO2, and saturated humidity. […] The supernatant was discarded, and the cell clumps were resuspended with fresh complete culture medium, blown into single cells again, passaged and inoculated into new culture dishes (bottles) in a ratio of 1:3-1:6, the complete culture medium was supplemented, and then placed in a cell culture incubator at 37° C. and 5% CO2 for culture. • 3) Cell dosing treatment: The above-mentioned HeLa cells were digested, counted, and inoculated into each well of the 96 well cell culture plate (#3988, Corning) at a density of 5000 cells/200 μl culture medium. […]

The subject of assay [2] is HeLa (human cervical cancer cells). As to the kind of experiment: In vitro proliferation inhibition (CCK-8), HeLa. The assay is classed as cell-based. An excerpt:
• 1) Cell sources: HeLa (human cervical cancer cells), CaSki (human cervical cancer intestinal metastasis cells), Huh7 (human liver cancer cells), HepG2 (human liver cancer cells), Hep3B (human liver cancer cells) were purchased from the Chinese Academy of Sciences cell bank (Shanghai); LO2 (human normal liver cells) and HcerEpic (human normal uterine epithelial cells) were from ATCC. • 2) Cell culture and passage: The cell culture and passage method is the same as that described in “The inhibitory effect of compounds on the OCT4 protein in tumor stem cells (CSC)”. • 3) Cell dosing treatment: The each type of cells mentioned above was digested, counted, and inoculated in each well of the 96 well cell culture plate (#3988, Corning) at a density of 5000 cells/200 μl culture medium. They were cultured in a cell culture incubator at 37° C. and 5% CO2 for 24 hours to allow the cells to fully adherent to the wall. Then, the original culture medium was replaced with complete culture medium containing gradient diluted KZT-A5 (each concentration with 3 repeated wells) as well as DMSO (#D5879, Sigma Aldrich) solvent control, and they are cultured for additional 72 hours. • 4) Pharmacodynamic test and statistics: First, the morphology of cells treated with the above compounds was observed, photographed and recorded using an inverted phase contrast microscope (X71, Olympus). Then the original culture medium was replaced with phenol red free culture medium containing CCK-8 detection reagent (#E606335, Shanghai Shenggong) respectively, and they are cultured in the incubator for additional 2 hours. Then the OD450 nm absorbance value (OD value) was measured on a multifunctional enzyme-linked immunosorbent assay (168-1130, Bio Rad). After the cells were treated with the test compound, the equations for calculating the cell survival rate or cell growth rate is: survival rate=GD value of the treated group/OD value of the control group×100%; the equations for calculating the growth inhibition rate of compounds on cell proliferation is: inhibition rate=(OD value of control group−OD value of the treated group)/OD value of control group×100%. Further, the IC50 of each compound was calculated in SPSS based on the inhibition rate.
• 1) Cell sources: Huh7 (human liver cancer cells), HepG2 (human liver cancer cells), Hep3B (human liver cancer cells), and HeLa (human cervical cancer cells) were all purchased from the Chinese Academy of Sciences cell bank (Shanghai), while LO2 (human normal liver cells) was obtained from ATCC. • 2) Cell culture and passage: The cell culture and passage method is the same as that described in “The inhibitory effect of compounds on human tumor cell lines from different tissue sources (1)”. • 3) Cell dosing treatment: The cell dosing treatment method is the same as that described in “The inhibitory effect of compounds on human tumor cell lines from different tissue sources (1). • 4) Pharmacodynamic test and statistics: The pharmacodynamic test and statistics method is the same as that described in “The inhibitory effect of compounds on human tumor cell lines from different tissue sources (1)”. The IC50 value data of the compound on each type of tumor cells is the average±standard deviation of three wells in one test.

Bounds are passed on as bounds.

T1 sequence (Q01860 whole entry): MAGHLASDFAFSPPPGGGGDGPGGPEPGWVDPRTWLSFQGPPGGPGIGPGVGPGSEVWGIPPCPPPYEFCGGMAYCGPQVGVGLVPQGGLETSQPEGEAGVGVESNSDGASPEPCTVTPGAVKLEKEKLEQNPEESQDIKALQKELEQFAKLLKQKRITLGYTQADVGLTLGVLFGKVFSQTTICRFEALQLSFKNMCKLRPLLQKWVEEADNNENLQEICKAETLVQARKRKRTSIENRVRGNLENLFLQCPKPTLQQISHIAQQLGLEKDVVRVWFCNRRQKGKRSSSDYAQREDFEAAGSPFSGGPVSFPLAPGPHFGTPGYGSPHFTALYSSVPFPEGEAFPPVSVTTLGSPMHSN

One may read the IC50 as the concentration that gives 50% inhibition. Low values mean higher potency, high ones lower potency. For the compound `COc1cc(/C=C2\CCc3c([nH]c4ccc(C)cc34)C2=O)ccc1O` [KZT-A5], in assay [1] (HeLa 3A11, 10 μM vs 100 μM), the “dose dependence of inhibition of OCT4 protein expression” value is “dose-dependently inhibit the expression of OCT4 protein”. In addition, the “inhibitory effect on OCT4 protein (downregulation)” value in assay [1] (HeLa cell line 3A11, 48-72 hours) is listed as “most significant effect in downregulating OCT4 protein”. For the same compound, the half-inhibitory concentration (IC50) in assay [2] (72 hours, CCK-8, average of three wells in one test) was 570 nM; in assay [2] (Homo sapiens, 72 h, CCK-8, average of three wells in one test) it was less than 1000 nM; in assay [2] (Homo sapiens, test (2), average±standard deviation of three wells), 700 ± 10 nM. For the same compound, in assay [2] (Table 3), the “inhibitory effect compared with AH057” value is recorded as “comparable to AH057”.

The record behind these values is US20250034089A1, “TETRAHYDROCARBAZOLE COMPOUND, AND PHARMACEUTICAL COMPOSITION AND USE THEREOF” (NAIN BIOTECH (HANGZHOU) CO., LTD., priority 2021, published 2025).
